Measured values from US10597388B2, “Pyridazinone herbicides” (FMC CORPORATION, priority 2014, dated 2020).

Assays:
Experiment in all cases: Test D controlled growth environment herbicide test, pre- and postemergence
Format in all cases: in vivo
[1] = system: Russian thistle (Salsola kali)
Method in brief: (§1)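 Species sown in silt loam and sprayed preemergence, or grown in peat-based medium to 2–18 cm (1- to 4-leaf stage) and sprayed postemergence, with compounds in non-phytotoxic solvent plus surfactant. Visual injury scored versus controls after 14–21 d in a controlled environment, 0 (no effect) to 100 (complete control).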

[2] = system: barley, spring (spring barley, Hordeum vulgare)
Method in brief: as §1

[3] = system: bluegrass (annual bluegrass, Poa annua)
Method in brief: as §1

[4] = system: buckwheat, wild (wild buckwheat, Polygonum convolvulus)
Method in brief: as §1

[5] = system: canarygrass (Phalaris minor)
Method in brief: as §1

[6] = system: deadnettle (henbit deadnettle, Lamium amplexicaule)
Method in brief: as §1

[7] = system: field violet (Viola arvensis)
Method in brief: as §1

[8] = system: galium (catchweed bedstraw, Galium aparine)
Method in brief: as §1

kochia (Kochia scoparia) = system: kochia (Kochia scoparia)
Method in brief: as §1

[9] = system: oilseed rape (Brassica napus)
Method in brief: as §1

[10] = system: radish, wild (wild radish, Raphanus raphanistrum)
Method in brief: as §1

[11] = system: ryegrass, Italian (Italian ryegrass, Lolium multiflorum)
Method in brief: as §1

[12] = system: speedwell (bird's-eye speedwell, Veronica persica)
Method in brief: as §1

[13] = Postemergence, 31 g ai/ha, scale 0 to 100 (0 no effect, 100 complete control)
[14] = Postemergence, 125 g ai/ha, visual rating on scale 0 (no effect) to 100 (complete control), 14 to 21 d
[15] = Postemergence, 250 g ai/ha, scale 0 to 100 (0 no effect, 100 complete control)
[16] = Preemergence, 125 g ai/ha, scale 0 to 100 (0 no effect, 100 complete control)
[17] = Preemergence, 250 g ai/ha, scale 0 to 100, 0 no effect, 100 complete control
[18] = postemergence, 62 g ai/ha, scale 0 to 100, 0 no effect, 100 complete control
[19] = Preemergence, 62 g ai/ha, scale 0 to 100 (0 no effect, 100 complete control)

CC(=O)Oc1c(C)nn(C)c(=O)c1-c1c(C)sc2ccc(Cl)cc12 [Compound 108]
Russian Thistle plant response rating [1, 13]: 65
Plant response rating, Russian Thistle [1, 14]: 75
Plant response rating, Russian Thistle [1, 15]: 90
Plant response rating (scale of 0 to 100), Russian Thistle ([1]; Preemergence, 31 g ai/ha): 0
Plant response rating (scale of 0 to 100), Russian Thistle ([1]; Preemergence, 62 g ai/ha): 15
Plant response rating, Russian Thistle [1, 16]: 70
Plant response rating, Russian Thistle [1, 17]: 100
Plant response rating, Russian Thistle [1, 18]: 70
Barley, Spring plant response rating [2, 13]: 0
Plant response rating, Barley, Spring [2, 14]: 15
Plant response rating, Barley, Spring [2, 15]: 20
Plant response rating (scale of 0 to 100), Barley, Spring ([2]; Preemergence, 31 g ai/ha): 0
Plant response rating, Barley, Spring [2, 19]: 0
Plant response rating, Barley, Spring [2, 16]: 0
Plant response rating, Barley, Spring [2, 17]: 0
Plant response rating, Barley, Spring [2, 18]: 10
Bluegrass plant response rating [3, 13]: 5
Plant response rating, Bluegrass [3, 14]: 25
Plant response rating, Bluegrass [3, 15]: 35
Plant response rating (scale of 0 to 100), Bluegrass ([3]; Preemergence, 31 g ai/ha): 10
Plant response rating, Bluegrass [3, 19]: 15
Plant response rating, Bluegrass [3, 16]: 35
Plant response rating, Bluegrass [3, 17]: 75
Plant response rating, Bluegrass [3, 18]: 10
Buckwheat, Wild plant response rating [4, 13]: 90
Plant response rating, Buckwheat, Wild [4, 14]: 100
Plant response rating, Buckwheat, Wild [4, 15]: 100
Plant response rating (scale of 0 to 100), Buckwheat, Wild ([4]; Preemergence, 31 g ai/ha): 0
Plant response rating, Buckwheat, Wild [4, 19]: 0
Plant response rating, Buckwheat, Wild [4, 16]: 20
Plant response rating, Buckwheat, Wild [4, 17]: 35
Plant response rating, Buckwheat, Wild [4, 18]: 100
Canarygrass plant response rating [5, 13]: 40
Plant response rating, Canarygrass [5, 14]: 80
Plant response rating, Canarygrass [5, 15]: 80
Plant response rating (scale of 0 to 100), Canarygrass ([5]; Preemergence, 31 g ai/ha): 45
Plant response rating (scale of 0 to 100), Canarygrass ([5]; Preemergence, 62 g ai/ha): 80
Plant response rating, Canarygrass [5, 16]: 90
Plant response rating, Canarygrass [5, 17]: 95
Plant response rating, Canarygrass [5, 18]: 50
Deadnettle plant response rating [6, 13]: 35
Plant response rating, Deadnettle [6, 14]: 75
Plant response rating, Deadnettle [6, 15]: 90
Plant response rating (scale of 0 to 100), Deadnettle ([6]; Preemergence, 31 g ai/ha): 0
Plant response rating (scale of 0 to 100), Deadnettle ([6]; Preemergence, 62 g ai/ha): 25
Plant response rating, Deadnettle [6, 16]: 95
Plant response rating, Deadnettle [6, 17]: 100
Plant response rating, Deadnettle [6, 18]: 50
Field Violet plant response rating [7, 13]: 90
Plant response rating, Field Violet [7, 14]: 100
Plant response rating, Field Violet [7, 15]: 100
Plant response rating (scale of 0 to 100), Field Violet ([7]; Preemergence, 31 g ai/ha): 90
Plant response rating (scale of 0 to 100), Field Violet ([7]; Preemergence, 62 g ai/ha): 100
Plant response rating, Field Violet [7, 16]: 100
Plant response rating, Field Violet [7, 17]: 100
Plant response rating, Field Violet [7, 18]: 95
Galium plant response rating [8, 13]: 90
Plant response rating, Galium [8, 14]: 100
Plant response rating, Galium [8, 15]: 100
Plant response rating (scale of 0 to 100), Galium ([8]; Preemergence, 31 g ai/ha): 60
Plant response rating (scale of 0 to 100), Galium ([8]; Preemergence, 62 g ai/ha): 70
Plant response rating, Galium [8, 16]: 95
Plant response rating, Galium [8, 17]: 100
Plant response rating, Galium [8, 18]: 95
Kochia plant response rating (kochia (Kochia scoparia); [13]): 90
Plant response rating, Kochia (kochia (Kochia scoparia); [14]): 100
Plant response rating, Kochia (kochia (Kochia scoparia); [15]): 100
Plant response rating (scale of 0 to 100), Kochia (kochia (Kochia scoparia); Preemergence, 31 g ai/ha): 60
Plant response rating (scale of 0 to 100), Kochia (kochia (Kochia scoparia); Preemergence, 62 g ai/ha): 95
Plant response rating, Kochia (kochia (Kochia scoparia); [16]): 80
Plant response rating, Kochia (kochia (Kochia scoparia); [17]): 100
Plant response rating, Kochia (kochia (Kochia scoparia); [18]): 100
Oilseed Rape plant response rating [9, 13]: 45
Plant response rating, Oilseed Rape [9, 14]: 75
Plant response rating, Oilseed Rape [9, 15]: 100
Plant response rating (scale of 0 to 100), Oilseed Rape ([9]; Preemergence, 31 g ai/ha): 20
Plant response rating (scale of 0 to 100), Oilseed Rape ([9]; Preemergence, 62 g ai/ha): 45
Plant response rating, Oilseed Rape [9, 16]: 75
Plant response rating, Oilseed Rape [9, 17]: 40
Plant response rating, Oilseed Rape [9, 18]: 70
Radish, Wild plant response rating [10, 13]: 75
Plant response rating, Radish, Wild [10, 14]: 85
Plant response rating, Radish, Wild [10, 15]: 90
Plant response rating (scale of 0 to 100), Radish, Wild ([10]; Preemergence, 31 g ai/ha): 45
Plant response rating (scale of 0 to 100), Radish, Wild ([10]; Preemergence, 62 g ai/ha): 100
Plant response rating, Radish, Wild [10, 16]: 100
Plant response rating, Radish, Wild [10, 17]: 90
Plant response rating, Radish, Wild [10, 18]: 75
Ryegrass, Italian plant response rating [11, 13]: 90
Plant response rating, Ryegrass, Italian [11, 14]: 95
Plant response rating, Ryegrass, Italian [11, 15]: 100
Plant response rating (scale of 0 to 100), Ryegrass, Italian ([11]; Preemergence, 31 g ai/ha): 80
Plant response rating (scale of 0 to 100), Ryegrass, Italian ([11]; Preemergence, 62 g ai/ha): 98
Plant response rating, Ryegrass, Italian [11, 16]: 100
Plant response rating, Ryegrass, Italian [11, 17]: 100
Plant response rating, Ryegrass, Italian [11, 18]: 90
Speedwell plant response rating [12, 13]: 60
Plant response rating, Speedwell [12, 14]: 70
Plant response rating, Speedwell [12, 15]: 80
Plant response rating, Speedwell [12, 18]: 65
